Measurements from ChEMBL document CHEMBL4138170, “Synthesis and biological evaluation of novel alkylated polyamine analogues as potential anticancer agents” (Eur J Med Chem, 2018).
Each block holds one compound with its values, some of them ahead of it. Activity calls are given as the source filed them. The calls are words filed in the database; no cut-off is given here.

Assays:
[1] = tested on: SMMC-7721; assay: Antiproliferative activity against human SMMC7721 cells after 48 hrs by MTT assay; format: functional, cell-based; details: SMMC-7721, 48 h
[2] = tested on: HepG2; assay: Antiproliferative activity against human HepG2 cells after 48 hrs by MTT assay; format: functional, cell-based; details: HepG2, 48 h
[3] = tested on: K562; assay: Antiproliferative activity against human K562 cells after 48 hrs by MTT assay; format: functional, cell-based; details: K562, 48 h
[4] = tested on: HCT-116; assay: Antiproliferative activity against human HCT116 cells after 48 hrs by MTT assay; format: functional, cell-based; details: HCT-116, 48 h
[5] = tested on: SMMC-7721; assay: Inhibition of cell migration in human SMMC7721 cells at 2.5 to 7.5 uM incubated for 24 to 48 hrs by cell wound scratch assay; format: functional, cell-based
[6] = tested on: HepG2; assay: Induction of autophagy in human HepG2 cells assessed as downregulation of p62 expression level up to 10 uM after 24 to 48 hrs by Western blot analysis; format: functional, cell-based
[7] = tested on: H22; assay: Antiproliferative activity against mouse H22 cells after 48 hrs by MTT assay; format: functional, cell-based; details: H22, 48 h
[8] = tested on: Mus musculus; assay: Toxicity in Swiss mouse implanted with mouse H22 cells assessed as effect on quality of life at 0.75 mg/kg/day, iv administered via tail vein for 7 days; format: organism-based; details: in vivo, 168 h
[9] = tested on: SMMC-7721; assay: Induction of ROS generation in human SMMC7721 cells after 24 hrs by H2DCFDA staining-based HCS analysis; format: functional, cell-based
[10] = tested on: SMMC-7721; assay: Antiproliferative activity against human SMMC7721 cells after 48 hrs in presence of antioxidant NAC by MTT assay; format: functional, cell-based
[11] = tested on: SMMC-7721; assay: Induction of autophagy in human SMMC7721 cells assessed as increase in LC3-2 levels after 24 to 48 hrs by Western blot analysis; format: functional, cell-based
[12] = tested on: MDA-MB-231; assay: Antiproliferative activity against human MDA-MB-231 cells after 48 hrs by MTT assay; format: functional, cell-based; details: MDA-MB-231, 48 h
[13] = tested on: SMMC-7721; assay: Induction of autophagy in human SMMC7721 cells assessed as increase in LC3-2 levels in presence of antioxidant NAC by Western blot analysis; format: functional, cell-based
[14] = tested on: Mus musculus; assay: Toxicity in Swiss mouse xenografted with mouse H22 cells assessed as effect on lung weight at 0.75 mg/kg/day, iv administered via tail vein for 7 days; format: organism-based; details: in vivo, 168 h
[15] = tested on: SMMC-7721; assay: Induction of autophagy in human SMMC7721 cells assessed as upregulation of ATG5 expression level up to 10 uM after 24 to 48 hrs by Western blot analysis; format: functional, cell-based
[16] = tested on: HepG2; assay: Induction of autophagy in human HepG2 cells assessed as upregulation of ATG5 expression level up to 10 uM after 24 to 48 hrs by Western blot analysis; format: functional, cell-based
[17] = tested on: HepG2; assay: Induction of autophagy in human HepG2 cells up to 10 uM after 48 hrs in presence of antioxidant NAC by MDC staining-based flow cytometry; format: functional, cell-based
[18] = tested on: HepG2; assay: Antimigratory activity in human HepG2 cells incubated for 24 to 48 hrs in presence of autophagy inhibitor 3-MA by cell wound scratch assay; format: functional, cell-based
[19] = tested on: MCF7; assay: Antiproliferative activity against human MCF7 cells after 48 hrs by MTT assay; format: functional, cell-based; details: MCF7, 48 h
[20] = tested on: HepG2; assay: Inhibition of cell migration in human HepG2 cells at 2.5 to 7.5 uM incubated for 24 to 48 hrs by cell wound scratch assay; format: functional, cell-based
[21] = Stability of the compound after 48 hrs by 1H NMR spectroscopic method; format: physicochemical
[22] = tested on: Mus musculus; assay: Toxicity in Swiss mouse xenografted with mouse H22 cells assessed as effect on liver weight at 0.75 mg/kg/day, iv administered via tail vein for 7 days; format: organism-based; details: in vivo, 168 h
[23] = tested on: HepG2; assay: Induction of autophagy in human HepG2 cells assessed as decrease in p62 levels in presence of antioxidant NAC by Western blot analysis; format: functional, cell-based
[24] = tested on: HT-29; assay: Antiproliferative activity against human HT-29 cells after 48 hrs by MTT assay; format: functional, cell-based; details: HT-29, 48 h
[25] = tested on: HepG2; assay: Induction of ROS generation in human HepG2 cells at 10 uM after 24 hrs in presence of antioxidant NAC by H2DCFDA staining-based flow cytometry; format: functional, cell-based
[26] = tested on: HepG2; assay: Induction of autophagy in human HepG2 cells assessed as increase in LC3-2 levels after 24 to 48 hrs by Western blot analysis; format: functional, cell-based
[27] = tested on: HepG2; assay: Induction of ROS generation in human HepG2 cells after 24 hrs by H2DCFDA staining-based HCS analysis; format: functional, cell-based
[28] = tested on: HepG2; assay: Induction of autophagy in human HepG2 cells assessed as increase in LC3-2 levels in presence of antioxidant NAC by Western blot analysis; format: functional, cell-based
[29] = tested on: H22; assay: Antitumor activity against mouse H22 cells implanted in Swiss mouse assessed as inhibition of lung metastasis at 0.75 mg/kg/day, iv administered via tail vein for 7 days relative to control; format: functional; details: 168 h
[30] = tested on: SMMC-7721; assay: Induction of ROS generation in human SMMC7721 cells at 10 uM after 24 hrs in presence of antioxidant NAC by H2DCFDA staining-based flow cytometry; format: functional, cell-based
[31] = tested on: HepG2; assay: Downregulation of beta-catenin protein expression in human HepG2 cells after 24 to 48 hrs by Western blot analysis; format: functional, cell-based
[32] = tested on: HepG2; assay: Induction of autophagy in human HepG2 cells assessed as increase in Beclin 1 levels at 2.5 to 7.5 um after 24 to 48 hrs by Western blot analysis; format: functional, cell-based
[33] = tested on: SMMC-7721; assay: Induction of autophagy in human SMMC7721 cells up to 10 uM after 48 hrs in presence of antioxidant NAC by MDC staining-based flow cytometry; format: functional, cell-based
[34] = tested on: HepG2; assay: Antiproliferative activity against human HepG2 cells after 48 hrs in presence of antioxidant NAC by MTT assay; format: functional, cell-based
[35] = tested on: HepG2; assay: Induction of ROS generation in human HepG2 cells at 2.5 to 10 uM after 24 hrs by H2DCFDA staining-based flow cytometry; format: functional, cell-based
[36] = tested on: HepG2; assay: Downregulation of MMP9 protein expression in human HepG2 cells after 24 to 48 hrs by Western blot analysis; format: functional, cell-based
[37] = tested on: H22; assay: Antitumor activity against mouse H22 cells implanted in Swiss mouse assessed as tumor growth inhibition at 0.75 mg/kg/day, iv administered via tail vein for 7 days relative to control; format: functional; details: 168 h, read-out: TGI
[38] = Stability of the compound after 24 hrs by 1H NMR spectroscopic method; format: physicochemical
[39] = tested on: SMMC-7721; assay: Induction of autophagy in human SMMC7721 cells up to 10 uM after 48 hrs by MDC staining-based flow cytometry; format: functional, cell-based
[40] = tested on: Mus musculus; assay: Toxicity in Swiss mouse implanted with mouse H22 cells assessed as effect on body weight at 0.75 mg/kg/day, iv administered via tail vein for 7 days; format: organism-based; details: in vivo, 168 h
[41] = tested on: SMMC-7721; assay: Induction of autophagy in human SMMC7721 cells assessed as decrease in p62 levels in presence of antioxidant NAC by Western blot analysis; format: functional, cell-based
[42] = tested on: HepG2; assay: Induction of autophagy in human HepG2 cells up to 10 uM after 48 hrs by MDC staining-based flow cytometry; format: functional, cell-based
[43] = tested on: Mus musculus; assay: Toxicity in Swiss mouse xenografted with mouse H22 cells assessed as effect on kidney weight at 0.75 mg/kg/day, iv administered via tail vein for 7 days; format: organism-based; details: in vivo, 168 h
[44] = tested on: SMMC-7721; assay: Induction of autophagy in human SMMC7721 cells assessed as downregulation of p62 expression level up to 10 uM after 24 to 48 hrs by Western blot analysis; format: functional, cell-based
[45] = tested on: HepG2; assay: Induction of autophagy in human HepG2 cells assessed as upregulation of ATG7 expression level up to 10 uM after 24 to 48 hrs by Western blot analysis; format: functional, cell-based
[46] = tested on: Mus musculus; assay: Toxicity in Swiss mouse implanted with mouse H22 cells assessed as effect on heart weight at 0.75 mg/kg/day, iv administered via tail vein for 7 days; format: organism-based; details: in vivo, 168 h
[47] = tested on: Mus musculus; assay: Toxicity in Swiss mouse xenografted with mouse H22 cells assessed as effect on spleen weight at 0.75 mg/kg/day, iv administered via tail vein for 7 days; format: organism-based; details: in vivo, 168 h
[48] = tested on: CT26; assay: Antiproliferative activity against mouse CT26 cells after 48 hrs by MTT assay; format: functional, cell-based; details: CT26, 48 h
[49] = tested on: SMMC-7721; assay: Downregulation of beta-catenin protein expression in human SMMC7721 cells after 24 to 48 hrs by Western blot analysis; format: functional, cell-based
[50] = tested on: SMMC-7721; assay: Induction of autophagy in human SMMC7721 cells assessed as increase in Beclin 1 levels at 2.5 to 7.5 um after 24 to 48 hrs by Western blot analysis; format: functional, cell-based
[51] = tested on: SMMC-7721; assay: Induction of ROS generation in human SMMC7721 cells at 2.5 to 10 uM after 24 hrs by H2DCFDA staining-based flow cytometry; format: functional, cell-based
[52] = tested on: SMMC-7721; assay: Downregulation of MMP9 protein expression in human SMMC7721 cells after 24 to 48 hrs by Western blot analysis; format: functional, cell-based
[53] = tested on: SMMC-7721; assay: Induction of autophagy in human SMMC7721 cells assessed as upregulation of ATG7 expression level up to 10 uM after 24 to 48 hrs by Western blot analysis; format: functional, cell-based
[54] = tested on: CT26; assay: Antimetastatic activity against mouse CT26 cells implanted in BALB/c mouse assessed as reduction in lung metastatic nodules at 0.75 mg/kg, iv administered via tail vein for 9 days; format: functional, organism-based

Structure (SMILES): CCNCCCNCCCNCCCN1C(=O)c2cccc3cccc(c23)C1=O
IC50 [1]: 7.71 µM
IC50 [2]: 6.77 µM
IC50 [3]: 6.08 µM
IC50 [4]: 6.73 µM

Structure (SMILES): O=C1c2cccc3cccc(c23)C(=O)N1CCCCNCCCCNCCCCNC1CCCCC1
IC50 [1]: 14.3 µM
IC50 [2]: 37 µM
IC50 [3]: 30.7 µM
IC50 [4]: 14.2 µM

Structure (SMILES): CCNCCCNCCCCNCCCN1C(=O)c2cccc3cccc(c23)C1=O
IC50 [1]: 11 µM
IC50 [2]: 5.22 µM
IC50 [3]: 14.8 µM
IC50 [4]: 5.94 µM

The next lines start with results.

IC50 [1]: 5.13 µM
IC50 [12]: 5.14 µM
IC50 [19]: 7.47 µM
Stability [21]: Stable
IC50 [24]: 8.18 µM
IC50 [2]: 6.34 µM
Stability [38]: Stable
IC50 [3]: 4.67 µM
IC50 [48]: 9.04 µM
IC50 [4]: 5.28 µM
Structure (SMILES): Cl.Cl.Cl.O=C1c2cccc3cccc(c23)C(=O)N1CCCNCCCNCCCNC1CC1
inhibition [5]: Active
Activity [6]: Active
IC50 [7]: 7.49 µM
Activity [8]: Non-Toxic
Activity [9]: Dose-dependent effect
Activity [10]: inactive
Activity [11]: Dose-dependent effect
Activity [13]: inactive
Activity [14]: Non-Toxic
Activity [15]: Active
Activity [16]: Active
Activity [17]: inactive
Activity [18]: Active
inhibition [20]: Active
Activity [22]: Non-Toxic
Activity [23]: inactive
Activity [25]: inactive
Activity [26]: Dose-dependent effect
Activity [27]: Dose-dependent effect
Activity [28]: inactive
inhibition in vivo at 0.75 mg/kg/day [29]: 54.4%
Activity [30]: inactive
Activity [31]: Dose-dependent effect
Activity [32]: Active
Activity [33]: inactive
Activity [34]: inactive
Activity [35]: Active
Activity [36]: Dose-dependent effect
inhibition in vivo at 0.75 mg/kg/day [37]: 68.3%
Activity [39]: Active
Activity [40]: Non-Toxic
Activity [41]: inactive
Activity [42]: Active
Activity [43]: Non-Toxic
Activity [44]: Active
Activity [45]: Active
Activity [46]: Non-Toxic
Activity [47]: Non-Toxic
Activity [49]: Dose-dependent effect
Activity [50]: Active
Activity [51]: Active
Activity [52]: Dose-dependent effect
Activity [53]: Active
inhibition [54]: Active

IC50 [1]: 6.38 µM
IC50 [2]: 6.59 µM
IC50 [3]: 8.09 µM
IC50 [4]: 7.21 µM
Structure (SMILES): O=C1c2cccc3cccc(c23)C(=O)N1CCCNCCCCNCCCNC1CC1

IC50 [1]: 29.9 µM
IC50 [2]: 25.4 µM
IC50 [3]: 17.2 µM
IC50 [4]: 18.3 µM
Structure (SMILES): O=C1c2cccc3cccc(c23)C(=O)N1CCCNCCCCNCCCNC1CCCCC1
